Results on 1 compound are retold here after patent US6518036B1, “Method of permanent fluorescent assay” (Nen Life Science Products, Inc., priority 1999, dated 2003).

Data set [1] addresses Horseradish peroxidase (HRP) conjugated wheat germ agglutinin (Armoracia rusticana, UniProt P00433). To be noted: mouse intestine section. The procedure:
Sections of paraffin-embedded mouse intestine were deparaffinized, and non-specific binding sites were blocked by treatment for thirty minutes in PBS-blocking buffer (PBS-BB) (0.1 M phosphate buffered saline, pH 7.2; 1.0% bovine serum albumin, 0.2% non-fat powdered milk; and 0.3% Triton X-100). Horseradish peroxidase (HRP) conjugated wheat germ agglutinin (Sigma; St. Louis, Mo.) at a concentration of 10 μg/ml in PBS-BB was incubated on the sections for one hour at room temperature. Sections were then washed in PBS (three×five minutes each wash) and Tris (0.1 M Tris, pH 8.5; three×three minutes each wash). N-(5-hydroxypentyl)-3-(p-hydroxyphenyl) propionamide (HHPA), 1 mg/ml in Tris containing 0.003% H2O2, was then added to the sections at room temperature for ten minutes. Sections were then washed in Tris (three×three minutes each wash) and mounted with Tris:Glycerol (1:1) and coverslipped. Sections were viewed with a Zeiss Axioskop microscope equipped with epifluorescence and filter sets with excitation/emission characteristics of 360 nm/>400 nm (blue-white fluorescence); 490 nm/520 nm (green fluorescence); and 550 nm/570 nm (red fluorescence). Sections were photographed with a Zeiss MC100 camera system.
Wheat germ agglutinin binds to N-acetylglucosamine residues present in abundance in intestinal mucin producing goblet cells. […] The microscopic field was then illuminated for one minute at 360 nm and reexamined as described above. […] Original magnifications 400×.

Data set [2] is described as follows: Fluorescent signal stability under continuous excitation (automatic exposure time, ASA 1600). To be noted: mouse brain section. The format is physicochemical.
Experimental: Sections of paraffin-embedded mouse brain were deparaffinized and non-specific binding sites were blocked by treatment for thirty minutes in PBS-BB. Monoclonal antibody against microtubule associated protein-2 (Sigma) was diluted 1:100,000 in PBS-BB and incubated on the sections overnight at 4° C. Sections were then washed in PBS (three×five minutes each wash) and incubated at room temperature for one hour with HRP-conjugated donkey anti-mouse antibodies (Jackson Immunoresearch Laboratories; West Grove, Pa.) diluted 1:1000 in PBS-BB. […]
The fluorescein labeled section was viewed with a filter set having excitation/emission peaks at 490 nm/520 nm. […] Photomicrographs using standard two second exposures were taken at both time points to assess changes in fluorescence intensity over time. In addition, fluorescence intensity was semi-quantitated at both time points by recording the automatic exposure time required for photomicrographic documentation in a standard field using an ASA setting of 1600 and the MC100 camera system (Zeiss). Using this measure, short exposure times correlate with bright-fluorescence and long exposure times with dim fluorescence.

Sequence of Horseradish peroxidase (HRP) conjugated wheat germ agglutinin (P00433 31-338 limits assumed): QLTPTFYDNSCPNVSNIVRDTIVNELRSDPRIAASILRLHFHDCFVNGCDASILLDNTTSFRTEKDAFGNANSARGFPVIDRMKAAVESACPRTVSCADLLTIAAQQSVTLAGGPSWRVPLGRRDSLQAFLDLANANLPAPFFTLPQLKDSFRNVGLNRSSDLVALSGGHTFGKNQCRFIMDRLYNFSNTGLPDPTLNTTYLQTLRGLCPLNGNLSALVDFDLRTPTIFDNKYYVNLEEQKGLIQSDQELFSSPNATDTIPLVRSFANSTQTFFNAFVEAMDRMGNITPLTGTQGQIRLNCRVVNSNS

Consider `O=C(CCc1ccc(O)cc1)NCCCCCO` [HHPA, N-(5-hydroxypentyl)-3-(p-hydroxyphenyl) propionamide], for which the “fluorescence signal, blue-white filter set” value in data set [1] (360 nm excitation, before one minute illumination at 360 nm) is given as “weak fluorescence signal”. In addition, the “fluorescent signal, all three filter sets (blue-white, green, red)” value in data set [1] (after one minute illumination at 360 nm, localized to goblet cells) is recorded as “Intense fluorescent signals”. Further, the “fluorescence signal, green or red filter sets” value in data set [1] (before one minute illumination at 360 nm) is “almost no signal”. Also, the “time required for a standard ASA 1600 exposure” value in data set [2] (after fifteen minutes of continuous excitation) amounted to 3.1 s; in data set [2] (time zero, short exposure = bright fluorescence) it was 4.1 s.
